One experiment addresses Substance-P receptor (Meriones unguiculatus, UniProt Q5DUB1). The experiment in a line: Displacement of [125I]-substance P from gerbil NK1 receptor expressed in HEK293 cell membranes incubated for 30 mins by liquid scintillation counting method. Further details: species or system Gerbillinae. For orientation: Loss of bound radioactivity is the signal in a displacement assay; it reports binding, not function.

A short description of experiment [1]: Displacement of [3H]-citalopram from gerbil SERT expressed in HEK293 cell membranes incubated for 60 mins by liquid scintillation counting method. Set-up: species or system Gerbillinae.
The next experiment deals with HEK293. Briefly: Selectivity index, ratio of IC50 for gerbil SERT expressed in HEK293 cell membranes to IC50 for gerbil NK1 receptor expressed in HEK293 cell membranes. The following applies: Gerbillinae. It is filed as cell-based.

In ChEMBL document CHEMBL3596162, “Biaryls as potent, tunable dual neurokinin 1 receptor antagonists and serotonin transporter inhibitors” (Bioorg Med Chem Lett, 2015) one finds IC50 and Ratio IC50 data, which are given here for 51 compounds.

The IC50 is the concentration at which inhibition is half-maximal. A lower IC50 goes with greater potency.

SMILES strings stand for the structures.

Sequence of Substance-P receptor (Q5DUB1 whole entry): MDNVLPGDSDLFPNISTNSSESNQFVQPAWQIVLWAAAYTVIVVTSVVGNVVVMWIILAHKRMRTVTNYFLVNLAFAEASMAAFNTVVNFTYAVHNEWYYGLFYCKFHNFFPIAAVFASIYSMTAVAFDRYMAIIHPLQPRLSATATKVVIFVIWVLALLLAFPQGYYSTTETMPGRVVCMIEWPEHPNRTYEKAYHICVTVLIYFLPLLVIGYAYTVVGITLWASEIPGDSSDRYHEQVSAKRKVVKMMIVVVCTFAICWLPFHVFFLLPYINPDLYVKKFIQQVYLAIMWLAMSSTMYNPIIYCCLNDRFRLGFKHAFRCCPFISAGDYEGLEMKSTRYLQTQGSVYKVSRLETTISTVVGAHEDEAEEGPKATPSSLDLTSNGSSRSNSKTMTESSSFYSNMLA

Regarding `FC(F)(F)c1cc(COCC2(c3ccccc3)CCNCC2)cc(-c2nnn[nH]2)c1`, the figures for the half-maximal inhibitory concentration (IC50) (at Substance-P receptor; in experiment [1]) were 200 nM and 8.6 nM, respectively. Further, the Ratio IC50 in the experiment on HEK293 turned out to be 0.04.
Taken in the same sequence, the figures for `Cn1nnc(-c2cc(COCC3(c4ccccc4)CCNCC3)cc(C(F)(F)F)c2)n1` were 36 nM, 9.6 nM and 0.3.
Taken in the same sequence, the figures for `Fc1ccccc1-c1cc(COCC2(c3ccccc3)CCNCC2)cc(C(F)(F)F)c1` were 23 nM, 7.6 nM and 0.3.
In the same order, the values of `FC(F)(F)c1cc(COCC2(c3ccccc3)CCNCC2)cc(-c2ccc3c(c2)OCO3)c1` are 7.1 nM, 45 nM and 6.
As to `COC(=O)c1ccc(-c2cc(COCC3(c4ccccc4)CCNCC3)cc(C(F)(F)F)c2)cc1`, the values for the IC50 (on Substance-P receptor; in experiment [1]) were 17 nM and 25 nM, respectively. In addition, the Ratio IC50 with HEK293 amounted to 1.
In the same order, the values of `COc1ccccc1-c1cc(COCC2(c3ccccc3)CCNCC2)cc(C(F)(F)F)c1` are 54 nM, 4.2 nM and 0.1.
Taken in the same sequence, the figures for `N#Cc1cc(F)c(-c2cc(COCC3(c4ccccc4)CCNCC3)cc(C(F)(F)F)c2)cc1F` were 0.91 nM, 3.7 nM and 4.
For `FC(F)(F)c1cc(COCC2(c3ccccc3)CCNCC2)cc(-c2ccccc2Cl)c1`, the results for the IC50 (at Substance-P receptor; in experiment [1]) were 68 nM and 6.4 nM, respectively. The Ratio IC50 in the experiment with HEK293 was 0.1.
Taken in the same sequence, the figures for `FC(F)(F)c1ccc(-c2cc(COCC3(c4ccccc4)CCNCC3)cc(C(F)(F)F)c2)cc1` were 30 nM, 36 nM and 1.
For the compound `N#Cc1ccc(-c2cc(COCC3(c4ccccc4)CCNCC3)cc(C(F)(F)F)c2)cc1Cl`, the IC50 on Substance-P receptor came out at 1.1 nM; in experiment [1], 3.1 nM. Moreover, the Ratio IC50 in the experiment with HEK293 is 3.
In the same order, the values of `N#Cc1cccc(-c2cc(COCC3(c4ccccc4)CCNCC3)cc(C(F)(F)F)c2)c1` are 49 nM, 10 nM and 0.2.
In the same order, the values of `FC(F)(F)c1cc(COCC2(c3ccccc3)CCNCC2)cc(-c2ccccn2)c1` are 41 nM, 7.4 nM and 0.2.
Taken in the same sequence, the figures for `Fc1ccc(-c2cc(COCC3(c4ccccc4)CCNCC3)cc(C(F)(F)F)c2)cc1` were 2.2 nM, 1.5 nM and 0.7.
As to `FC(F)(F)c1cc(COCC2(c3ccccc3)CCNCC2)cc(-c2cccc3ccccc23)c1`, the IC50 was 540 nM at Substance-P receptor and 120 nM in experiment [1]. The Ratio IC50 with HEK293 stood at 0.2.
In the case of `Cc1cc(-c2cc(COCC3(c4ccccc4)CCNCC3)cc(C(F)(F)F)c2)ccc1C#N`, the IC50 was found to be 1.2 nM on Substance-P receptor and 2.7 nM in experiment [1]. Also, in the experiment on HEK293, the Ratio IC50 was determined as 2.
In the same order, the values of `Cn1nnnc1-c1cc(COCC2(c3ccccc3)CCNCC2)cc(C(F)(F)F)c1` are 65 nM, 50 nM and 0.8.
In the same order, the values of `FC(F)(F)c1cc(COCC2(c3ccccc3)CCNCC2)cc(-c2ccccc2)c1` are 6.3 nM, 3.7 nM and 0.6.
`CCN1CCC(COCc2cc(-c3ccc(C#N)cc3)cc(C(F)(F)F)c2)(c2ccccc2)CC1`: the IC50 on Substance-P receptor was determined as 0.25 nM; in experiment [1], 420 nM. Moreover, the Ratio IC50 with HEK293 came to 1700.
In the same order, the values of `O=[N+]([O-])c1ccc(-c2cc(COCC3(c4ccccc4)CCNCC3)cc(C(F)(F)F)c2)cc1` are 3.8 nM, 7.3 nM and 2.
Taken in the same sequence, the figures for `Cc1cccc(-c2cc(COCC3(c4ccccc4)CCNCC3)cc(C(F)(F)F)c2)c1` were 24 nM, 14 nM and 0.6.
Taken in the same sequence, the figures for `CC(C)N1CCC(COCc2cc(-c3ccc(C#N)cc3)cc(C(F)(F)F)c2)(c2ccccc2)CC1` were 0.39 nM, 450 nM and 1200.
Turning to `N#Cc1ccc(-c2cc(COCC3(c4ccccc4)CCN(C4CC4)CC3)cc(C(F)(F)F)c2)cc1`, the IC50 on Substance-P receptor was 1.8 nM; in experiment [1], 2100 nM. Further, the Ratio IC50 in the experiment with HEK293 was 1200.
As for `COc1ccc(-n2nnnc2C)cc1CO[C@H]1CCCN[C@H]1c1ccccc1`, the IC50 at Substance-P receptor was 0.05 nM.
Consider `Oc1ccc(-c2cc(COCC3(c4ccccc4)CCNCC3)cc(C(F)(F)F)c2)cc1`, for which the IC50 at Substance-P receptor was determined as 3.6 nM; in experiment [1] it was 27 nM. Moreover, the Ratio IC50 in the experiment on HEK293 was found to be 8.
For the compound `O=[N+]([O-])c1ccccc1-c1cc(COCC2(c3ccccc3)CCNCC2)cc(C(F)(F)F)c1`, the IC50 on Substance-P receptor amounted to 6.5 nM; in experiment [1] it was 3.5 nM. Besides, the Ratio IC50 with HEK293 amounted to 0.5.
For the compound `Cc1ccc(-c2cc(COCC3(c4ccccc4)CCNCC3)cc(C(F)(F)F)c2)cc1`, the IC50 on Substance-P receptor is 8.4 nM; in experiment [1], 6.4 nM. For the same compound, the Ratio IC50 with HEK293 turned out to be 0.8.
Taken in the same sequence, the figures for `CCOc1ccc(-c2cc(COCC3(c4ccccc4)CCNCC3)cc(C(F)(F)F)c2)cc1` were 3.4 nM, 14 nM and 4.
Taken in the same sequence, the figures for `FC(F)(F)c1cc(COCC2(c3ccccc3)CCNCC2)cc(-n2nnnc2C(F)(F)F)c1` were 700 nM, 57 nM and 0.08.
Turning to `N#Cc1c(F)cc(-c2cc(COCC3(c4ccccc4)CCNCC3)cc(C(F)(F)F)c2)cc1F`, the IC50 on Substance-P receptor came out at 0.32 nM; in experiment [1] it was 7 nM. In addition, in the experiment with HEK293, the Ratio IC50 was 22.
In the same order, the values of `Nc1cccc(-c2cc(COCC3(c4ccccc4)CCNCC3)cc(C(F)(F)F)c2)c1` are 25 nM, 30 nM and 1.
Taken in the same sequence, the figures for `COc1ccc(-c2cc(COCC3(c4ccccc4)CCNCC3)cc(C(F)(F)F)c2)cc1` were 0.93 nM, 15 nM and 16.
Taken in the same sequence, the figures for `Oc1cccc(-c2cc(COCC3(c4ccccc4)CCNCC3)cc(C(F)(F)F)c2)c1` were 13 nM, 27 nM and 2.
As for `FC(F)(F)c1cc(COCC2(c3ccccc3)CCNCC2)cc(-c2ccc(Cl)cc2)c1`, the IC50 was 2.8 nM on Substance-P receptor and 1.8 nM in experiment [1]. Moreover, the Ratio IC50 in the experiment on HEK293 was determined as 0.6.
Take `N#Cc1ccc(-c2cc(COCC3(c4ccccc4)CCNCC3)cc(C(F)(F)F)c2)cc1F`: the figures for the IC50 (on Substance-P receptor; in experiment [1]) were 1.1 nM and 8.9 nM, respectively. In the experiment with HEK293, the Ratio IC50 stood at 8.
Taken in the same sequence, the figures for `N#Cc1c(F)c(F)c(-c2cc(COCC3(c4ccccc4)CCNCC3)cc(C(F)(F)F)c2)c(F)c1F` were 4.8 nM, 47 nM and 10.
In the same order, the values of `FC(F)(F)c1cc(COCC2(c3ccccc3)CCNCC2)cc(-c2ccncc2)c1` are 1.6 nM, 16 nM and 10.
Taken in the same sequence, the figures for `Fc1cccc(-c2cc(COCC3(c4ccccc4)CCNCC3)cc(C(F)(F)F)c2)c1` were 5 nM, 6.3 nM and 1.
Regarding `COc1ccc(-n2nnnc2C)cc1COCC1(c2ccccc2)CCNCC1`, the IC50 came out at 87 nM on Substance-P receptor and 37 nM in experiment [1]. Further, in the experiment with HEK293, the Ratio IC50 was 0.4.
Taken in the same sequence, the figures for `FC(F)(F)c1cc(COCC2(c3ccccc3)CCNCC2)cc(-c2ccco2)c1` were 47 nM, 18 nM and 0.4.
For `COc1ccc(-n2cnnn2)cc1CO[C@H]1CCCN[C@H]1c1ccccc1`, the IC50 on Substance-P receptor was 0.05 nM.
Regarding `N#Cc1ccc(-c2cc(COCC3(c4ccccc4)CCNCC3)cc(C(F)(F)F)c2)nc1`, the values for the IC50 (on Substance-P receptor; in experiment [1]) were 8.1 nM and 4 nM, respectively. Moreover, the Ratio IC50 with HEK293 worked out at 0.5.
Taken in the same sequence, the figures for `CN(C)c1ccc(-c2cc(COCC3(c4ccccc4)CCNCC3)cc(C(F)(F)F)c2)cc1` were 18 nM, 3.5 nM and 0.2.
`Cc1ccccc1-c1cc(COCC2(c3ccccc3)CCNCC2)cc(C(F)(F)F)c1`: the IC50 on Substance-P receptor came out at 130 nM; in experiment [1], 13 nM. In the experiment with HEK293, the Ratio IC50 was found to be 0.1.
In the same order, the values of `N#Cc1ccc(-c2cc(COCC3(c4ccccc4)CCNCC3)cc(C(F)(F)F)c2)cn1` are 1.9 nM, 10 nM and 5.
Taken in the same sequence, the figures for `FC(F)(F)c1cc(COCC2(c3ccccc3)CCNCC2)cc(-c2ccc3ccccc3c2)c1` were 120 nM, 110 nM and 0.9.
In the same order, the values of `O=[N+]([O-])c1cccc(-c2cc(COCC3(c4ccccc4)CCNCC3)cc(C(F)(F)F)c2)c1` are 5.2 nM, 4.2 nM and 0.8.
Compound `COc1ccc(-n2nnnc2C(F)(F)F)cc1CO[C@H]1CCCN[C@H]1c1ccccc1` displayed an IC50 on Substance-P receptor of 0.03 nM.
Regarding `FC(F)(F)c1cc(COCC2(c3ccccc3)CCNCC2)cc(-c2nccs2)c1`, the IC50 on Substance-P receptor worked out at 70 nM; in experiment [1], 4.1 nM. In addition, the Ratio IC50 in the experiment on HEK293 was 0.06.
As to `C[C@@H](O[C@H]1OCCN(Cc2n[nH]c(=O)[nH]2)[C@H]1c1ccc(F)cc1)c1cc(C(F)(F)F)cc(C(F)(F)F)c1` [APREPITANT], the IC50 at Substance-P receptor turned out to be 0.09 nM.
Regarding `Cc1nnnn1-c1cc(COCC2(c3ccccc3)CCNCC2)cc(C(F)(F)F)c1`, the half-maximal inhibitory concentration (IC50) at Substance-P receptor came out at 180 nM; in experiment [1] it was 70 nM. For the same compound, in the experiment on HEK293, the Ratio IC50 was found to be 0.4.
Taken in the same sequence, the figures for `N#Cc1ccc(-c2cc(COCC3(c4ccccc4)CCN(Cc4ccccc4)CC3)cc(C(F)(F)F)c2)cc1` were 2 nM, 800 nM and 400.
